The supplement of paper PMC10307832

Key:
Experiment in all cases: relative viability (nuclei count vs DMSO), 5 days (fraction); higher = more cells survive
LU99A = system: LU99A
Method in brief: (§1)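 Lung cancer cell lines, seeded in 1536-well plates, were treated the following day by pin tool with a single drug or with five library-drug doses (not always all listed) in √10 steps on top of a fixed anchor-drug dose. Cells were fixed and nuclei stained in one step after 5 days, and nuclei were counted. Relative viability is the nuclei count for treated wells divided by that for vehicle wells, reported as medians of duplicate plates.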

NCI-H2405 = system: NCI-H2405
Method in brief: as §1

EPLC-272H = system: EPLC-272H
Method in brief: as §1

PC-3 [JPC-3] = system: PC-3 [JPC-3]
Method in brief: as §1

NCI-H441 = system: NCI-H441
Method in brief: as §1

EKVX = system: EKVX
Method in brief: as §1

SW 1573 = system: SW 1573
Method in brief: as §1

NCI-H2228 = system: NCI-H2228
Method in brief: as §1

LK-2 = system: LK-2
Method in brief: as §1

LXF-289 = system: LXF-289
Method in brief: as §1

NCI-H522 = system: NCI-H522
Method in brief: as §1

HOP-62 = system: HOP-62
Method in brief: as §1

NCI-H1993 = system: NCI-H1993
Method in brief: as §1

NCI-H1355 = system: NCI-H1355
Method in brief: as §1

LCLC-97TM1 = system: LCLC-97TM1
Method in brief: as §1

SK-LU-1 = system: SK-LU-1
Method in brief: as §1

NCI-H2170 = system: NCI-H2170
Method in brief: as §1

HCC-827 = system: HCC-827
Method in brief: as §1

H3255 = system: H3255
Method in brief: as §1

UMC-11 = system: UMC-11
Method in brief: as §1

NCI-H3122 = system: NCI-H3122
Method in brief: as §1

NCI-H1650 = system: NCI-H1650
Method in brief: as §1

ChaGo-K-1 = system: ChaGo-K-1
Method in brief: as §1

Cc1cn(-c2cc(NC(=O)c3ccc(C)c(Nc4nccc(-c5cccnc5)n4)c3)cc(C(F)(F)F)c2)cn1 [Nilotinib] + CC(=O)Nc1cccc(-n2c(=O)n(C3CC3)c(=O)c3c(Nc4ccc(I)cc4F)n(C)c(=O)c(C)c32)c1 [Trametinib] (partner 0.02 µM)
relative viability (LU99A; first compound 0.001 µM): 0.31 | relative viability (LU99A; first compound 0.003162 µM): 0.328 | relative viability (LU99A; first compound 0.01 µM): 0.332 | relative viability (LU99A; first compound 0.03162 µM): 0.296 | relative viability (LU99A; first compound 0.1 µM): 0.242 | relative viability (NCI-H2405; first compound 0.001 µM): 0.504 | relative viability (NCI-H2405; first compound 0.003162 µM): 0.406 | relative viability (NCI-H2405; first compound 0.01 µM): 0.457 | relative viability (NCI-H2405; first compound 0.03162 µM): 0.325 | relative viability (NCI-H2405; first compound 0.1 µM): 0.327 | relative viability (EPLC-272H; first compound 0.001 µM): 0.289 | relative viability (EPLC-272H; first compound 0.003162 µM): 0.233 | relative viability (EPLC-272H; first compound 0.01 µM): 0.34 | relative viability (EPLC-272H; first compound 0.03162 µM): 0.273 | relative viability (EPLC-272H; first compound 0.1 µM): 0.225 | relative viability (PC-3 [JPC-3]; first compound 0.001 µM): 0.847 | relative viability (PC-3 [JPC-3]; first compound 0.01 µM): 0.7 | relative viability (PC-3 [JPC-3]; first compound 0.03162 µM): 0.523 | relative viability (PC-3 [JPC-3]; first compound 0.1 µM): 0.591 | relative viability (NCI-H441; first compound 0.001 µM): 0.437 | relative viability (NCI-H441; first compound 0.003162 µM): 0.569 | relative viability (NCI-H441; first compound 0.01 µM): 0.468 | relative viability (NCI-H441; first compound 0.03162 µM): 0.299 | relative viability (NCI-H441; first compound 0.1 µM): 0.37 | relative viability (EKVX; first compound 0.001 µM): 0.336 | relative viability (EKVX; first compound 0.003162 µM): 0.351 | relative viability (EKVX; first compound 0.01 µM): 0.352 | relative viability (EKVX; first compound 0.03162 µM): 0.355 | relative viability (EKVX; first compound 0.1 µM): 0.734 | relative viability (SW 1573; first compound 0.001 µM): 0.487 | relative viability (SW 1573; first compound 0.003162 µM): 0.72 | relative viability (SW 1573; first compound 0.01 µM): 0.456 | relative viability (SW 1573; first compound 0.1 µM): 0.314 | relative viability (NCI-H2228; first compound 0.001 µM): 0.437 | relative viability (NCI-H2228; first compound 0.003162 µM): 0.552 | relative viability (NCI-H2228; first compound 0.01 µM): 0.576 | relative viability (NCI-H2228; first compound 0.03162 µM): 0.255 | relative viability (NCI-H2228; first compound 0.1 µM): 0.295 | relative viability (LK-2; first compound 0.001 µM): 0.514 | relative viability (LK-2; first compound 0.003162 µM): 0.515 | relative viability (LK-2; first compound 0.01 µM): 0.687 | relative viability (LK-2; first compound 0.03162 µM): 0.46 | relative viability (LK-2; first compound 0.1 µM): 0.608 | relative viability (LXF-289; first compound 0.001 µM): 0.686 | relative viability (LXF-289; first compound 0.003162 µM): 0.699 | relative viability (LXF-289; first compound 0.01 µM): 0.701 | relative viability (LXF-289; first compound 0.03162 µM): 0.577 | relative viability (LXF-289; first compound 0.1 µM): 0.466 | relative viability (NCI-H522; first compound 0.01 µM): 0.627 | relative viability (NCI-H522; first compound 0.03162 µM): 0.671 | relative viability (NCI-H522; first compound 0.1 µM): 0.596 | relative viability (HOP-62; first compound 0.001 µM): 0.387 | relative viability (HOP-62; first compound 0.003162 µM): 0.364 | relative viability (HOP-62; first compound 0.1 µM): 0.277 | relative viability (NCI-H1993; first compound 0.001 µM): 0.47 | relative viability (NCI-H1993; first compound 0.003162 µM): 0.522 | relative viability (NCI-H1993; first compound 0.01 µM): 0.477 | relative viability (NCI-H1993; first compound 0.03162 µM): 0.507 | relative viability (NCI-H1993; first compound 0.1 µM): 0.494 | relative viability (NCI-H1355; first compound 0.001 µM): 0.378 | relative viability (NCI-H1355; first compound 0.003162 µM): 0.469 | relative viability (NCI-H1355; first compound 0.01 µM): 0.44 | relative viability (NCI-H1355; first compound 0.03162 µM): 0.356 | relative viability (NCI-H1355; first compound 0.1 µM): 0.307 | relative viability (LCLC-97TM1; first compound 0.001 µM): 0.164 | relative viability (LCLC-97TM1; first compound 0.003162 µM): 0.18 | relative viability (LCLC-97TM1; first compound 0.01 µM): 0.152 | relative viability (LCLC-97TM1; first compound 0.03162 µM): 0.114 | relative viability (LCLC-97TM1; first compound 0.1 µM): 0.227 | relative viability (SK-LU-1; first compound 0.001 µM): 0.436 | relative viability (SK-LU-1; first compound 0.003162 µM): 0.475 | relative viability (SK-LU-1; first compound 0.01 µM): 0.371 | relative viability (SK-LU-1; first compound 0.03162 µM): 0.361 | relative viability (SK-LU-1; first compound 0.1 µM): 0.385 | relative viability (NCI-H2170; first compound 0.001 µM): 0.816 | relative viability (NCI-H2170; first compound 0.003162 µM): 1.23 | relative viability (NCI-H2170; first compound 0.01 µM): 1.1 | relative viability (NCI-H2170; first compound 0.03162 µM): 0.842 | relative viability (NCI-H2170; first compound 0.1 µM): 0.868 | relative viability (HCC-827; first compound 0.001 µM): 0.593 | relative viability (HCC-827; first compound 0.003162 µM): 0.523 | relative viability (HCC-827; first compound 0.03162 µM): 0.542 | relative viability (HCC-827; first compound 0.1 µM): 0.469 | relative viability (H3255; first compound 0.001 µM): 0.617 | relative viability (H3255; first compound 0.003162 µM): 0.582 | relative viability (H3255; first compound 0.03162 µM): 0.53 | relative viability (H3255; first compound 0.1 µM): 0.947 | relative viability (UMC-11; first compound 0.001 µM): 0.635 | relative viability (UMC-11; first compound 0.003162 µM): 0.801 | relative viability (UMC-11; first compound 0.01 µM): 0.742 | relative viability (UMC-11; first compound 0.03162 µM): 0.446 | relative viability (UMC-11; first compound 0.1 µM): 0.317 | relative viability (NCI-H3122; first compound 0.001 µM): 0.249 | relative viability (NCI-H3122; first compound 0.003162 µM): 0.303 | relative viability (NCI-H3122; first compound 0.03162 µM): 0.157 | relative viability (NCI-H3122; first compound 0.1 µM): 0.158 | relative viability (NCI-H1650; first compound 0.001 µM): 0.608 | relative viability (NCI-H1650; first compound 0.003162 µM): 0.735 | relative viability (NCI-H1650; first compound 0.01 µM): 0.531 | relative viability (NCI-H1650; first compound 0.03162 µM): 0.471 | relative viability (NCI-H1650; first compound 0.1 µM): 0.327 | relative viability (ChaGo-K-1; first compound 0.001 µM): 0.824 | relative viability (ChaGo-K-1; first compound 0.003162 µM): 1.15 | relative viability (ChaGo-K-1; first compound 0.01 µM): 1.03 | relative viability (ChaGo-K-1; first compound 0.03162 µM): 0.804 | relative viability (ChaGo-K-1; first compound 0.1 µM): 0.869
